From patent US20260151379A1, “SALT TYPE AND CRYSTAL FORM OF COMPLEMENT FACTOR B INHIBITOR, AND PREPARATION METHOD THEREFOR AND APPLICATION THEREOF” (SHANGHAI MEIYUE BIOTECH DEVELOPMENT CO., LTD., priority 2022, published 2026)

Tested on: cynomolgus monkey serum AP activity
Assay: PD of single intragastric administration to cynomolgus monkeys (serum complement AP activity, wieslab assay)
Type: in vivo
Conditions: intragastric 3 mpk and 30 mpk
Description: Cynomolgus monkeys were used. Each group consisted of 3 cynomolgus monkeys, and they were given the control compound at 3 mpk, the control compound at 30 mpk, the compound of formula I at 3 mpk, and the compound of formula I at 30 mpk by intragastric administration. Blood was collected at different time points and used for drug concentration analysis and complement activity detection. The compound concentration in plasma was determined by LC-MS/MS. The complement activity in serum was determined using a wieslab assay (Svar Life Science AB, COMPL AP330 RUO) kit, Normal Human Serum (Complement Technology, NHS).

Q: For `COc1cc(C)c2[nH]ccc2c1CN1CC[C@H](OCC2CC2)C[C@H]1c1ccc(C(=O)O)cc1` [Compound of formula I], which “Inhibition of cynomolgus monkey serum AP activity (in words, FIG. 22)” value is on record?
A: Its value is “can effectively inhibit the cynomolgus monkey serum AP activity”.
